Legend:
[1] = tested on: Neisseria gonorrhoeae pathway; assay: Yeast avatar glyphosate sensitivity assay, Neisseria gonorrhoeae pathway; type: cell-based; conditions: aro1Δ yeast carrying Neisseria gonorrhoeae pathway, 0.25% glyphosate, FIG. 3
[2] = tested on: yeast avatars expressing heterologous shikimate pathways (EPSPS enzyme); assay: Yeast avatar glyphosate sensitivity assay (panel of avatars); type: cell-based, Saccharomyces cerevisiae
[3] = tested on: step 6 (EPSPS) of Neisseria gonorrhoeae; assay: N−1 assay for molecular target of glyphosate, [Sau HGC] lacking step 6; type: cell-based, yeast (aro1Δ) carrying Neisseria gonorrhoeae pathway; conditions: aro1Δ [Ngo] yeast with [Sau HGC] lacking step 6, −AAA, 0.25% glyphosate
Text: (§1) FIG. 6. Molecular target identification of the shikimate pathway inhibitor glyphosate in the yeast avatar system. Yeast cells lacking ARO1 (aro1Δ) carrying the Neisseria gonorrhoeae pathway ([Ngo]) or an empty vector (empty) were co-transformed with a full-length Staphylococcus aureus pathways ([Sau HGC]), one of five derivatives of [Sau HGC] lacking a single enzymatic activity (step 2, step 3, step 4, step 5, step 6), or an empty vector (empty) lacking all shikimate pathway enzymatic activities. Cells were plated on replete medium including aromatic amino acids (+AAA) or selective medium lacking aromatic amino acids (−AAA). 0.25% glyphosate (vol/vol of a commercially available 41% solution of glyphosate) was added to the plates where indicated. Cell growth indicates complementation and absence of cell growth indicates no complementation.
(§2) As discussed above, five steps of the endogenous shikimate pathway are provided by a single gene, ARO1, which encodes a penta-functional protein (FIG. 1, 2). […] To distinguish between these possibilities and determine whether any of the heterologous enzymatic activities are functional in yeast, the “N−1” assay can be used. […] Each of the five strains can then be evaluated for complementation on medium lacking aromatic amino acids. […]

[4] = molecular target: step 2 of the pathway, DHQS (Escherichia coli, UniProt P07639); conditions: reference (25); cited from earlier work
Sequence of step 2 of the pathway, DHQS (P07639 whole entry): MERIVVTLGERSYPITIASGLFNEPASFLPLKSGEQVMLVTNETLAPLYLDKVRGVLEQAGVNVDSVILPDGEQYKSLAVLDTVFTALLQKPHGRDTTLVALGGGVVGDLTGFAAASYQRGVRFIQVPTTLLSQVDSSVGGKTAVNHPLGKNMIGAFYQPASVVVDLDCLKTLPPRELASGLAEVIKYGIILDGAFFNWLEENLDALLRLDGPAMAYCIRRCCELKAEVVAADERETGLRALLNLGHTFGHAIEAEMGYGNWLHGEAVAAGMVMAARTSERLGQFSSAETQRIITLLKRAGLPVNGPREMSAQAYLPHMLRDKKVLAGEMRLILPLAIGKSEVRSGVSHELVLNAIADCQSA

[5] = molecular target: T1, step 2 (DHQS) of Neisseria gonorrhoeae (Neisseria gonorrhoeae, UniProt Q5FAD4); assay: N−1 assay for molecular target of glyphosate, [Sau HGC] lacking step 2; type: cell-based; conditions: aro1Δ [Ngo] yeast with [Sau HGC] lacking step 2, −AAA, 0.25% glyphosate
T1 construct: expressed in transfected cells; host or cells: Saccharomyces cerevisiae aro1Δ, co-transformed with [Sau HGC] lacking step 2
T1 sequence (Q5FAD4 whole entry): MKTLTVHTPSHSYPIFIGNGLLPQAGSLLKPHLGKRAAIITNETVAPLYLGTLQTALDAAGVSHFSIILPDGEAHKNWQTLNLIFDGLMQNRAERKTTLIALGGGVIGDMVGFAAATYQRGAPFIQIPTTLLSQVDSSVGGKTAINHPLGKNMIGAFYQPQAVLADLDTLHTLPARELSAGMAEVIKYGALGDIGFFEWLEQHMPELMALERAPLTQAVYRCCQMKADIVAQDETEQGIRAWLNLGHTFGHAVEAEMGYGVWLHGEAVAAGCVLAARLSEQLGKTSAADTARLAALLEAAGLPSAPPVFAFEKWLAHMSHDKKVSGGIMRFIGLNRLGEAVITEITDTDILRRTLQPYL
Text: as §1, §2

[6] = tested on: Staphylococcus aureus pathway; assay: Yeast avatar glyphosate sensitivity assay, Staphylococcus aureus pathway; type: cell-based; conditions: aro1Δ yeast carrying Staphylococcus aureus pathway, 0.25% glyphosate, FIG. 3

With `O=C(O)CNCP(=O)(O)O` [glyphosate] the “growth of avatar on glyphosate (sensitivity/resistance)” value [1] was “demonstrated sensitivity”, the “ability of yeast avatars to grow on glyphosate” value ([2]; 0.25% glyphosate (vol/vol of 41% solution), medium lacking aromatic amino acids, 6 days at 30° C., a number of avatars) was “sensitive” and the “glyphosate sensitivity upon supplementation of aromatic amino acids” value ([2]; 0.25% glyphosate, plus tryptophan, phenylalanine and tyrosine) was “glyphosate sensitivity was overcome”. For the same molecule, the cell growth [3] was “completely inhibited”, the “sensitivity of enzymatic activity to glyphosate” value [3] was “sensitive” and the “inhibition of DHQS” value [4] was “inhibits”. The cell growth [5] was “completely inhibited”, the “sensitivity of enzymatic activity to glyphosate” value [5] was “sensitive” and the “growth of avatar on glyphosate (sensitivity/resistance)” value [6] was “resistant”.

— patent US10865417B2, “Yeast synthetic biology platform for identifying shikimate pathway enzyme inhibitors” (New York University, priority 2018, dated 2020)
